According to paper PMC11477289, “Low-Basicity 5-HT6 Receptor Ligands from the Group of Cyclic Arylguanidine Derivatives and Their Antiproliferative Activity Evaluation” (International Journal of Molecular Sciences, 2024):
Where “and” joins values, the source holds several entries; their conditions need not be identical. Equal values may be shown once.

Assays:
human 5-HT6 = biological target: T1, human 5-HT6 (Homo sapiens, UniProt P50406); test: [3H]-LSD radioligand binding assay, 5-HT6R; conditions: HEK293 expressing human 5-HT6R, read-out: 5-HT6 Ki
T1 construct: expressed in transfected cells
Method: Next, the ligands’ affinity for the 5-HT6 receptors was evaluated in the [^3H]-LSD radioligand binding assay. Experiments were performed in a stable HEK293 cell line expressing the human 5-HT6R.
The pellets were stored at −80 °C.

[1] = Chromatographic hydrophobicity index on C18 column (lipophilicity); assay type: physicochemical
[2] = Affinity to phospholipids, IAM column (CHI IAM); assay type: physicochemical; conditions: IAM.PC.DD2 column, pH 7.4
[3] = biological target: human serum albumin (HSA) (Homo sapiens, UniProt P02768); test: Binding to HSA, Chiralpak HSA column; conditions: Chiralpak HSA column
Excerpt: We began with an assay for lipophilicity, affinity for phospholipids (for 40 compounds), and drug binding to human serum albumin (HSA) (for 20 compounds), using chromatographic protocols developed by Valko [46] and implemented in our laboratory. Compounds with the highest affinity for 5-HT6R and those showing the most promising ADMET parameters, including the possibility of BBB penetration, DDI, and lipophilicity, determined in silico in SwissADME [45], were selected for testing. These methods allowed the determination of chromatographic hydrophobicity indices (CHIs), binding to HSA (%HSA), and phospholipids (CHIIAM) using a single-gradient elution experiment and comparison to reference substances.
The use of columns modified with plasma proteins, such as HSA, also allows for the estimation of binding to HSA, which is the most dominant plasma protein (PP). Binding to PP affects drug pharmacokinetics, such as distribution, half-life, and clearance.
The mobile phase flow rate was 1.5 mL/min, and the column was maintained at 30 °C. • Chiralpak® HSA (50 mm × 4 mm; 5 µm with safety guard column; Daicel Chiral Technologies, West Chester, PA, USA), mobile phase A: 50 mM ammonium acetate, mobile phase B: HPLC-grade isopropanol (VWR International, Leuven, Belgium). For the first 15 min, the linear gradient from 0 to 20% isopropanol was applied and then held at 20% isopropanol for 12 min. In the last 5 min of the sequence, the mobile phase mixture received a pure ammonium acetate solution. The column temperature was held at 30 °C, whereas the flow rate was 0.9 mL/min.
The reference substances for the calibration of HSA, C18, and IAM columns were purchased, respectively: acetanilide, butyrophenone, diclofenac, and octanonophenone (Alfa Aesar, Haverhill, MA, USA); acetophenone, benzimidazole, colchicine, indole, indometacin, paracetamol, and theophylline (Sigma-Aldrich, Steinheim, Germany); nicardipine and nizatidine (Cayman Chemical, Ann Arbor, MI, USA); carbamazepine, heptanophenone, hexanophenone, propiophenone, and valerophenone (Acros Organic, Pittsburg, PA, USA). Before chromatographic experiments, solutes were dissolved in dimethyl sulfoxide (Avantor Performance Materials Poland S.A., Gliwice, Poland) to obtain a 200 µg/mL concentration. The detection was performed in the UV region at the wavelength from 190 nm to 300 nm. The injected volume was 5 μL, and each compound was analyzed in triplicate.

[4] = system: MCF7 breast carcinoma cell line; test: Antiproliferative activity (MTS), MCF7; conditions: Homo sapiens, MCF7, 72 h, read-out: IC50 Values MCF7
U87MG glioblastoma cells = test: Antiproliferative activity (MTS), U87MG; conditions: Homo sapiens, U-87 MG, 72 h, read-out: IC50 Values U87MG
U-251 glioblastoma cells = test: Antiproliferative activity (MTS), U-251; conditions: Homo sapiens, U-251, 72 h, read-out: IC50 Values U-251
[5] = system: 1321N1 astrocytoma cell line; test: Antiproliferative activity (MTS), 1321N1; conditions: Homo sapiens, 1321-N1, 72 h, read-out: IC50 Values 1321N1
[6] = system: LN-229 glioblastoma cell line; test: Antiproliferative activity (MTS), LN-229; conditions: Homo sapiens, LN-229, 72 h, read-out: IC50 Values LN-229
[7] = system: AsPC-1 pancreas adenocarcinoma cell line; test: Antiproliferative activity (MTS), AsPC-1; conditions: Homo sapiens, ASPC1, 72 h, read-out: IC50 Values AsPC-1

T1 sequence (P50406 whole entry): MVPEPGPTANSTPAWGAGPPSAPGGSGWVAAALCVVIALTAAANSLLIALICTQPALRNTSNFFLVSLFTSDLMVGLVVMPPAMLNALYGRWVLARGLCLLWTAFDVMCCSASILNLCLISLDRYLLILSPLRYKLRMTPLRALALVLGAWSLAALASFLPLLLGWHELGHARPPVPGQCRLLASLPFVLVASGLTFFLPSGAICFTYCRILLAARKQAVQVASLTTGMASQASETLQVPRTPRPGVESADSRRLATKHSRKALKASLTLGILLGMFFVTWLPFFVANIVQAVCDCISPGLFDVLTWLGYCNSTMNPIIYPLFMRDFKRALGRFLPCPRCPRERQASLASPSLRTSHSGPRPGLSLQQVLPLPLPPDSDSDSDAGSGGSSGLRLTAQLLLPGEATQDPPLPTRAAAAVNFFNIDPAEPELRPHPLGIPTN
Sequence of human serum albumin (HSA) (P02768 25-609): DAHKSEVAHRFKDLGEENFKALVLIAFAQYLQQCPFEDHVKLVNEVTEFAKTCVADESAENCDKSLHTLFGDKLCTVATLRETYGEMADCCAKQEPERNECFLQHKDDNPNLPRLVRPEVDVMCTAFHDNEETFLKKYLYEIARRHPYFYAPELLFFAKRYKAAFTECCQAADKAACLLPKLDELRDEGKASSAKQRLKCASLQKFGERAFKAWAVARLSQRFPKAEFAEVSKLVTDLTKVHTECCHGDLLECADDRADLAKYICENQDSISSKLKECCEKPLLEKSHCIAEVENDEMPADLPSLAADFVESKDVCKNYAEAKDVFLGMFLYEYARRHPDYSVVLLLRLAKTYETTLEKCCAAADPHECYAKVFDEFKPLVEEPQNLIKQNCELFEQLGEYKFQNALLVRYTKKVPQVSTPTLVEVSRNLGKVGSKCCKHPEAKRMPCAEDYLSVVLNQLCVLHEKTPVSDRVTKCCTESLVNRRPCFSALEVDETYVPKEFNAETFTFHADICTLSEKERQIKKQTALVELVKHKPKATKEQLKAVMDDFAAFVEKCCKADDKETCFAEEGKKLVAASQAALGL

SMILES	Ki (human 5-HT6) [nM]	acid–base properties ([1]; comparison of CHI values at different pH levels)	CHI C18 pH 2.6 [1]	CHI C18 pH 7.4 [1]	CHI C18 pH 10.5 [1]	CHI IAM [2]	%HSA [3] [%]	logKHSA [3]	melting point [°C]	IC50 [4] [µM]	IC50 (U87MG glioblastoma cells) [µM]	IC50 (U-251 glioblastoma cells) [µM]	IC50 [5] [µM]	IC50 [6] [µM]	IC50 [7] [µM]
O=S(=O)(NC1=Nc2ccccc2CN1)c1cccc(Cl)c1 [PR 19, 3-chloro-N-(3,4-dihydroquinazolin-2-yl)benzene-1-sulfonamide]	521 ± 130	–	83.7	83.2	87.3	36.6	91.3	1.0	176 to 180	> 25	> 25	> 25	> 25	> 25	> 25
O=S(=O)(NC1=Nc2ccccc2CN1)c1ccc2c(Cl)cccc2c1 [PR 30, 5-chloro-N-(3,4-dihydroquinazolin-2-yl)naphthalene-2-sulfonamide]	972 ± 242	–	99.1	97.7	100.4	45.2	–	–	192 to 195	> 25	–	> 25	–	> 25	> 25
CC1NC(NS(=O)(=O)c2ccc3ccccc3c2)=Nc2ccc(Br)cc21 (centres unmarked) [PR 36, N -(6-bromo-4-methyl-3,4-dihydroquinazolin-2-yl)naphthalene-2-sulfonamide]	29400 ± 7360	–	–	–	–	–	–	–	–	> 25	> 25	> 25	> 25	> 25	> 25
CC1NC(NS(=O)(=O)c2ccc(Cl)c3ccccc23)=Nc2c(Cl)cc(Cl)cc21 (centres unmarked) [PR 74, 4-chloro-N-(6,8-dichloro-4-methyl-3,4-dihydroquinazolin-2-yl)naphthalene-1-sulfonamide]	1040 ± 260	–	125.7	123 and 123.9	128.1	55.5	99.9	2.0	215 to 219	–	17 ± 0.4	–	13.4 ± 0.8	–	–

The next compounds have a lower Ki (human 5-HT6) than those just listed; values first:

Ki (human 5-HT6) [nM]	acid–base properties ([1]; comparison of CHI values at different pH levels)	CHI C18 pH 2.6 [1]	CHI C18 pH 7.4 [1]	CHI C18 pH 10.5 [1]	CHI IAM [2]	%HSA [3] [%]	logKHSA [3]	melting point [°C]	IC50 [4] [µM]	IC50 (U87MG glioblastoma cells) [µM]	IC50 (U-251 glioblastoma cells) [µM]	IC50 [5] [µM]	IC50 [6] [µM]	IC50 [7] [µM]	SMILES
484 ± 121	–	103.2	101.2	105.6	46.3	98.3	1.6	119 to 123	–	> 25	–	> 25	–	–	CC1NC(NS(=O)(=O)c2cccc3ccccc23)=Nc2ccc(Br)cc21 (centres unmarked) [PR 75, N -(6-bromo-4-methyl-3,4-dihydroquinazolin-2-yl)naphthalene-1-sulfonamide]
412 ± 95	–	93.1	91.8	94.2	41.4	97.3	1.4	233 to 237	–	> 25	–	> 25	–	–	Cc1cccc2c1CNC(NS(=O)(=O)c1cccc3ccccc13)=N2 [PR 61, N -(5-methyl-3,4-dihydroquinazolin-2-yl)naphthalene-1-sulfonamide]
381 ± 88	–	90.8	89.4	92.4	40.8	96.4	1.3	191 to 193	–	> 25	–	> 25	–	–	O=S(=O)(NC1=Nc2cccc(F)c2CN1)c1cccc2ccccc12 [PR 54, N -(5-fluoro-3,4-dihydroquinazolin-2-yl)naphthalene-1-sulfonamide]
325 ± 81	acidic	78.8	76.7	58.4	39.3	95.7	1.3	> 315	> 25	> 25	> 25	> 25	> 25	> 25	O=S(=O)(Nc1nc2ccccc2[nH]1)c1cccc2ccccc12 [PR 11, N -(1H-1,3-benzodiazol-2-yl)naphthalene-1-sulfonamide]
273 ± 68	–	–	–	–	–	–	–	178 to 180	> 25	> 25	> 25	> 25	> 25	> 25	O=S(=O)(NC1=Nc2ccccc2CCN1)c1cccc2ccccc12 [PR 78, N -(4,5-dihydro-3H-1,3-benzodiazepin-2-yl)naphthalene-1-sulfonamide]
189 ± 42	–	111.2	109.2	112.5	51.6	99.5	1.8	217 to 223	> 25	> 25	> 25	> 25	> 25	> 25	O=S(=O)(NC1=Nc2cccc(Cl)c2CN1)c1ccc(Cl)c2ccccc12 [PR 53, 4-chloro-N-(5-chloro-3,4-dihydroquinazolin-2-yl)naphthalene-1-sulfonamide]
172 ± 41	–	92.8	90.8	96.6	41.4	97.3	1.4	245 to 249	> 25	> 25	> 25	> 25	> 25	> 25	COc1cccc2c1CNC(NS(=O)(=O)c1cccc3ccccc13)=N2 [PR 58, N -(5-methoxy-3,4-dihydroquinazolin-2-yl)naphthalene-1-sulfonamide]
